According to ChEMBL document CHEMBL1146414, “New Agelasine Compound from the Marine Sponge Agelas mauritiana as an Antifouling Substance against Macroalgae” (J Nat Prod, 1997):
Calls of active or inactive are those of the source. No cut-off for these calls is given here.

Tests used:
Ulva [1] = experiment: Antifouling activity against Ulva conglobata spores assessed as germination and attachment rate at 2.5 to 10.0 ppm; format: functional, organism-based
Ulva [2] = experiment: Toxicity against Ulva conglobata spores at 50 ppm; format: organism-based; conditions: in vivo
[3] = test system: Anagnostidinema amphibium; experiment: Antimicroalgal activity against Oscillatoria amphibia at 1.0 to 2.5 ppm; format: functional, organism-based
Skeletonema costatum = experiment: Antimicroalgal activity against Skeletonema costatum at 1.0 to 2.5 ppm; format: functional, organism-based
Prorocentrum micans = experiment: Antimicroalgal activity against Prorocentrum micans at 1.0 to 2.5 ppm; format: functional, organism-based
Brachiomonas submarina = experiment: Antimicroalgal activity against Brachiomonas submarina at 1.0 to 2.5 ppm; format: functional, organism-based
Staphylococcus aureus = experiment: Antibacterial activity against Staphylococcus aureus; format: functional, organism-based
Salinivibrio costicola = experiment: Antibacterial activity against sVibrio costicola; format: functional, organism-based
Escherichia coli = experiment: Antibacterial activity against Escherichia coli; format: functional, organism-based
Bacillus subtilis = experiment: Antibacterial activity against Bacillus subtilis; format: functional, organism-based

**Q.** What does the source list for `C/C(=C\C[n+]1cn(C)c2ncnc(N)c21)CC[C@@]1(C)C2=CCCC(C)(C)[C@@H]2CC[C@@H]1C.[Cl-]`?
**A.** Activity (Ulva [1]): Active; Activity (Ulva [2]): Toxic; Activity [3]: Active; Activity (Skeletonema costatum): Active; Activity (Prorocentrum micans): Active; Activity (Brachiomonas submarina): Active; Activity (Staphylococcus aureus): inactive; Activity (Salinivibrio costicola): inactive; Activity (Escherichia coli): inactive; Activity (Bacillus subtilis): inactive
